Experiment [1] deals with human embryonic kidney (HEK) 293 cell line. The experiment in a line: Cytotoxicity, MTS assay. A general note: Formazan colour is commonly taken as a measure of viable cells.
The subject of experiment [2] is human colon cancer cell line HCT-116. The experiment in a line: Cytotoxicity, MTS assay.
The subject of experiment [3] is Methicillin-resistant staphylococcus aureus (R3708). The experiment in a line: Antibacterial activity, broth dilution method (Mueller–Hinton broth), MIC.
Experiment [4] concerns Staphylococcus aureus (ATCC29213). The description is as above.
In experiment [5] the test system is Escherichia coli (ATCC25922). The description is as above.
The test system of experiment [6] is Staphylococcus aureus (ATCC29213), Methicillin-resistant staphylococcus aureus (R3708) and Escherichia coli (ATCC25922). The experiment in a line: Antibacterial activity against three multidrug-resistant bacteria, broth dilution (summary statements). (Broth dilution looks for growth in wells or tubes with falling amounts of substance.)
[7] abbreviates: ATCC25922|ATCC29213, read-out: MIC values ranging over the three bacteria.

Converted amounts (≈) assume the structure as drawn. Like-named read-outs stand apart in the source and are kept apart here.

On to “bisdethiobis(methylthio)gliotoxin [Compound 11]”, for which the IC50 (usually the concentration at which inhibition is half-maximal) in experiment [1] (293 cells, 72 h, MTS, n = 5) came out at 16.4 ± 0.38 µM; in experiment [2] (HCT-116 cells, 72 h, MTS, n = 5) it was 8.59 ± 0.96 µM.

Regarding `C=c1c(=O)n2c(cc3ccccc32)c(=O)n1C` [Compound 4, 1,2,3,4-tetrahydro-2-methyl-3-methylene-1,4-dioxopyrazino[1,2-a]indole], the IC50 in experiment [1] (Homo sapiens, HEK293, 72 h) is 30.1 ± 0.9 µM; in experiment [2] (Homo sapiens, HCT-116, 72 h), 10.3 ± 1.41 µM. Further, the figures for the MIC in experiment [3], in experiment [4] and in experiment [5] were 70.7 µM (≈ 16 µg/mL), 283 µM (≈ 64 µg/mL) and above 1130 µM, respectively.

Consider `CC1C(=O)n2c(cc3ccccc32)C(=O)N1C` (stereo not drawn) [Compound 3, 1,2,3,4-tetrahydro-2,3-dimethyl-1,4-dioxopyrazino[1,2-a]indole], for which, in experiment [6], the MIC (in general, the smallest concentration in the dilution series that meets the test's criterion for growth inhibition) was above 256 µg/mL.

Turning to `CN1C(=O)[C@]23CC4=CC=C[C@H](O)[C@H]4N2C(=O)[C@@]1(CO)SS3` [Compound 7, gliotoxin], the IC50 in experiment [1] (Homo sapiens, HEK293, 72 h) was found to be 1.58 ± 0.03 µM; in experiment [2] (Homo sapiens, HCT-116, 72 h), 1.24 ± 0.38 µM. For the same compound, the MIC is 1.52 to 97.6 µM in experiment [6] (setting [7]), 1.53 µM (≈ 0.499 µg/mL) in experiment [3], 12.2 µM (≈ 3.98 µg/mL) in experiment [4] and 24.5 µM (≈ 8.01 µg/mL) in experiment [5].

With `CC1(C)S[C@@H]2[C@H](NC(=O)[C@H](N)c3ccccc3)C(=O)N2[C@H]1C(=O)O` [Ampicillin sodium, reference compound], the results for the MIC in experiment [3], in experiment [4] and in experiment [5] were 129 µM, 8.07 µM and 6.73 µM, respectively.

Take `CSC1(CO)C(=O)N2C3C(=CC=CC3OC(C)=O)CC2(SC)C(=O)N1C` (stereo not drawn) [Compound 10, 6-acetylbis(methylthio)gliotoxin]: the IC50 in experiment [1] (Homo sapiens, HEK293, 72 h) is above 50 µM; in experiment [2] (Homo sapiens, HCT-116, 72 h) it was above 50 µM. For the same compound, the MIC in experiment [6] is above 256 µg/mL.

As to `CN1C(=O)C(=O)n2c(cc3ccccc32)C1=O` [Compound 5, 1,2,3,4-tetrahydro-2-methyl-1,3,4-trioxopyrazino[1,2-a]indole], the IC50 in experiment [1] (Homo sapiens, HEK293, 72 h) is above 50 µM; in experiment [2] (Homo sapiens, HCT-116, 72 h), above 50 µM. Moreover, the MIC in experiment [6] was above 256 µg/mL.

In the case of `O=c1[nH]cc(F)c(=O)[nH]1` [5-Fluorouracil, reference compound], the half-maximal inhibitory concentration (IC50) in experiment [2] (Homo sapiens, HCT-116, 72 h) turned out to be 2.04 ± 0.22 µM.

In the case of `COC1(CO)C(=O)n2c(cc3ccccc32)C(=O)N1C` (stereo not drawn) [Compound 2, 1,2,3,4-tetrahydro-3-methoxyl-3-hydroxylmethyl-2-methyl-1,4-dioxopyrazino[1,2-a]indole], in experiment [6], the MIC was above 256 µg/mL.

`CN1C(=O)C2(S)CC3=CC=CC(O)C3N2C(=O)C1(S)CO` (stereo not drawn) [Compound 9, reduced gliotoxin]: the IC50 was determined as 1.26 ± 0.04 µM in experiment [1] (Homo sapiens, HEK293, 72 h) and 0.43 ± 0.04 µM in experiment [2] (Homo sapiens, HCT-116, 72 h). Also, the MIC is 1.52 to 97.6 µM in experiment [6] (setting [7]), 1.52 µM (≈ 0.499 µg/mL) in experiment [3], 48.8 µM (≈ 16 µg/mL) in experiment [4] and 97.6 µM (≈ 32 µg/mL) in experiment [5].

As for `CN[C@H](CC(C)C)C(=O)N[C@H]1C(=O)N[C@@H](CC(N)=O)C(=O)N[C@H]2C(=O)N[C@H]3C(=O)N[C@H](C(=O)N[C@H](C(=O)O)c4cc(O)cc(O)c4-c4cc3ccc4O)[C@H](O)c3ccc(c(Cl)c3)Oc3cc2cc(c3O[C@@H]2O[C@H](CO)[C@@H](O)[C@H](O)[C@H]2O[C@H]2C[C@](C)(N)[C@H](O)[C@H](C)O2)Oc2ccc(cc2Cl)[C@H]1O` [Vancomycin, reference compound], the minimal inhibitory concentration (MIC) in experiment [3] amounted to 2.01 µM (≈ 2.91 µg/mL); in experiment [4] it was 0.84 µM (≈ 1.22 µg/mL).

As for `CSC1(CO)C(=O)N2c3ccccc3CC2(SC)C(=O)N1C` (stereo not drawn) [Compound 12, didehydrobisdethiobis(methylthio)gliotoxin], the IC50 was above 50 µM in experiment [1] (Homo sapiens, HEK293, 72 h) and above 50 µM in experiment [2] (Homo sapiens, HCT-116, 72 h). In experiment [6], the MIC was above 256 µg/mL.

Turning to `CC(=O)OC1C=CC=C2CC34SSC(CO)(C(=O)N3C21)N(C)C4=O` (stereo not drawn) [Compound 8, acetylgliotoxin], the IC50 was 4.49 ± 0.24 µM in experiment [1] (Homo sapiens, HEK293, 72 h) and 0.89 ± 0.04 µM in experiment [2] (Homo sapiens, HCT-116, 72 h). The MIC is 21.7 µM (≈ 8.01 µg/mL) in experiment [3], 86.9 µM (≈ 32 µg/mL) in experiment [4] and above 696 µM in experiment [5].

As to `CNC(=O)c1cc2ccccc2[nH]1` [Compound 6, N-methyl-1H-indole-2-carboxamide], the MIC in experiment [6] is above 256 µg/mL.

For the compound `CSC1(CO)NC(=O)C(Cc2ccccc2)(SC)NC1=O` (stereo not drawn) [Compound 13, bis-N-norgliovictin], the IC50 in experiment [1] (Homo sapiens, HEK293, 72 h) was above 50 µM; in experiment [2] (Homo sapiens, HCT-116, 72 h), above 50 µM. In addition, the MIC in experiment [6] is above 256 µg/mL.

The record behind these values is paper PMC4245550, “Exploring the Chemodiversity and Biological Activities of the Secondary Metabolites from the Marine Fungus Neosartorya pseudofischeri” (Marine Drugs, 2014).
